Measurements from patent US6730666B1, “Pharmaceutical compositions comprising porphyrins and some novel porphyrin derivatives” (Yeda Research and Development Co. Ltd., priority 1998, dated 2004).
Like-named read-outs stand apart in the source and are kept apart here.

Key:
[1] = molecular target: T1, FGFR-1 alkaline phosphatase fusion protein (FRAP) (Mus musculus, UniProt P16092); assay: Binding of soluble FGFR-1 alkaline phosphatase fusion protein (FRAP) to bFGF immobilized on heparin (Screen AP assay); details: binding of FGF to FGFR; Methods section (ii); read-out: Screen AP assay (IC50)
T1 construct: soluble FGFR-1 ectodomain alkaline phosphatase fusion protein (FRAP); made in house; host or cells: NIH 3T3 cells (conditioned medium)
T1 sequence (P16092 22-376 limits assumed): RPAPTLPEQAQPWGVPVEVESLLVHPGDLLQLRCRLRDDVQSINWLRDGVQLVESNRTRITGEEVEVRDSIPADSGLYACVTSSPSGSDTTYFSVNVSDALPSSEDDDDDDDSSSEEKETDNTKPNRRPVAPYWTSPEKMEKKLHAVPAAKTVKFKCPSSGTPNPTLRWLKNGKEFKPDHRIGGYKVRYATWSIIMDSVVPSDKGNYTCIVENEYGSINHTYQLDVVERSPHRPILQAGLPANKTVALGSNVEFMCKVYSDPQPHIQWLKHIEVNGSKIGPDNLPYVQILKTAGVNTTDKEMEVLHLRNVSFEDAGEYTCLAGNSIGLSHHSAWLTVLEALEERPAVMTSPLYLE
Experimental: (ii) Binding of soluble FGFR-1 alkaline phosphatase fusion protein (FRAP) to immobilized bFGF. […] The end-point of the assay measured enzymatically the formation of FGF-receptor complexes quantitated by the specifically associated alkaline phosphatase (AP) catalyzed chromogenic product.
Subsequently, 200 μl of FRAP condition medium and porphyrin/corrole compound were added and incubated together for 2 h.
In order to identify inhibitors of FGF-FGFR interactions, an assay for testing FGFR-ligand binding was developed. The system is composed of bFGF bound to a heparin matrix to which soluble FGFR-1 ectodomain alkaline phosphatase fusion protein (FRAP) and the screened compounds are added (see Methods, section (ii)).

FGFR-1 [2] = molecular target: T2, FGFR-1 (Mus musculus, UniProt P16092); assay: Binding of 125I-bFGF to CHO cells expressing FGFR-1
T2 sequence (P16092 22-822): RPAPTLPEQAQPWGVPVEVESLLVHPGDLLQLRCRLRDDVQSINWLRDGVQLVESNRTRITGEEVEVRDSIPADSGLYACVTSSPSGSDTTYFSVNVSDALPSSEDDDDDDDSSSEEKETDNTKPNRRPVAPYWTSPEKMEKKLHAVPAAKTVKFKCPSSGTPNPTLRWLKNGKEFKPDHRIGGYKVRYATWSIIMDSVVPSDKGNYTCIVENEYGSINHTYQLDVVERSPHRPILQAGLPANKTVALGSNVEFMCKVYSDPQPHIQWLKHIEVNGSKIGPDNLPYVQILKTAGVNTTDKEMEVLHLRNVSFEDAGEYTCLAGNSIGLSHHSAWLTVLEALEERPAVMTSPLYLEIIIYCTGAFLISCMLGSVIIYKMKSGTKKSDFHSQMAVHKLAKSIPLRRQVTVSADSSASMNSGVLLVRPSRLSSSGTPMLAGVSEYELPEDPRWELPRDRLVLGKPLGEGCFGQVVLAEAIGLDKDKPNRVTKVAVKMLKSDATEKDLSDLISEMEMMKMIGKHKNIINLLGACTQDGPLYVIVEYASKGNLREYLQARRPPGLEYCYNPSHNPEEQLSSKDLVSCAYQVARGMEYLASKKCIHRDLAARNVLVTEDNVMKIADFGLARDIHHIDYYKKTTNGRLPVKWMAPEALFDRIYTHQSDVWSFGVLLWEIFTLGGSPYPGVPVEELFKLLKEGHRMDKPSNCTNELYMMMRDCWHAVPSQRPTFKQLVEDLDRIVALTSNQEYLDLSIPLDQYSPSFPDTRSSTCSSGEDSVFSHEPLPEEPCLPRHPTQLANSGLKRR
Source text: First we utilized a cell-free system, measuring the binding of radiolabeled bFGF to a dimeric soluble FGFR-1 fused to alkaline phosphatase. The soluble FRAP was immobilized using an anti-alkaline phosphatase antibody prebound to agarose-protein A beads (see Methods, section (iii)). As a: second experimental model, we used CHO cells deficient in heparan sulfate and genetically engineered to express FGFR-1 (Methods, section (iv)).

soluble FGFR-1 (FRAP) = molecular target: T3, soluble FGFR-1 (FRAP) (Mus musculus, UniProt P16092); assay: Binding of 125I-bFGF to immobilized soluble FGFR-1 (FRAP), cell-free
T3 sequence (P16092 22-376 limits assumed): T1 sequence (P16092 22-376 limits assumed)
Source text: First we utilized a cell-free system, measuring the binding of radiolabeled bFGF to a dimeric soluble FGFR-1 fused to alkaline phosphatase. […] As a: second experimental model, we used CHO cells deficient in heparan sulfate and genetically engineered to express FGFR-1 (Methods, section (iv)).

[3] = test system: Lewis lung carcinoma (LLC) lung metastasis; assay: Lewis lung carcinoma lung metastasis model; type: in vivo, C57 black mice; parameters: Inhibitory activity in vivo, LLC tumor model (as % of total inhibition): reference not given here; details: for Inhibitory activity in vivo, LLC tumor model (as % of total inhibition): 25 μg/gram, LLC murine tumor model, lung metastasis
Experimental: (vii) Lewis lung carcinoma tumor assay. Murine Lewis lung carcinoma (LLC) D122 cells (1×10^6 cells/[…] PBS) were injected into the foot pads of 10-week old C57 black mice (O'Reilly et al, 1994). Twenty five μg/g of body mass of porphyrin or corrole compound dissolved in PBS were injected IP twice a week to the treated group, and tumor size was measured periodically in order to follow primary tumor formation. In order to evaluate inhibition of lung metastasis by porphyrin or corrole compound, the primary tumors were allowed to develop over a period of six weeks to a volume of approximately 8 mm^3; after which the tumors were removed and metastases were allowed to develop for four weeks. During this time the treated group received 25 μg/g of body mass of porphyrin or corrole compound IP twice a week. Subsequently the mice were sacrificed, dissected and the lungs removed and photographed. The extent of lung metastasis was measured by weighing the lungs.
After establishing the capacity of P1 to inhibit primary tumor growth, the capacity of P1 to inhibit lung metastasis formation was measured as described in Methods, section (vi). Mice were injected with LLC cells (200,000 cells per mouse) into the foot pad and primary tumors were allowed to develop over a period of 3 to 4 weeks to a volume of approximately 8 mm^3. Subsequently, primary tumors were removed through amputation and lung metasases were allowed to develop for four weeks before the mice were sacrificed. The extent of lung metastasis at this point was examined by gross morphological examination and by determining the gain in lung weight. […] In order to quantitate the results from these experiments, the lungs from all mice were weighed and evaluated for the extent of metastatic growth.

FGFR-1 [4] = molecular target: T2, FGFR-1; assay: Covalent cross-linking of 125I-bFGF to CHO cells transfected with FGFR-1; type: binding; parameters: expressed in transfected cells; host or cells: CHO cells deficient in heparan sulfate; details: FIG. 2
Experimental: Binding of ^125I-bFGF to confluent monolayers of PGFR-1 expressing CHO cells or ^125I-FGF9 to FGFR-3 expressing CHO cells, was performed as described in Methods, section (iv), in the presence or absence of P1 (Inhibitor). After 90 min, disuccinylimidyl suberate [DSS]
(iv) Binding of ^125I-bFGF and ^125I-FGF9 to cells. Confluent cultures of CHO cells expressing FGFR-1(Yayon et al, 1991) or FGFR-3 (Hecht et al, 1995) in 24-well plates (Falcon) were precooled and washed twice with cold DMEM supplemented with 20 mM Hepes (pH 7.5) and 0.1% bovine serum albumin (DMEM/BSA). They were then incubated for 1.5 h at 4° C. with ^125I-bFGF (2 ng/ml) and increasing concentrations of porphyrin/corrole compound. The binding medium was discarded and the cells were washed once with ice-cold DMEM/BSA and twice with cold PBS (pH 7.5) containing 1.6M NaCl. […] Non-specific binding was determined in the presence of a 100-fold excess of unlabeled bFGF.
In order to unequivocally determine the specificity of the binding inhibition, chemical cross-linking of ^125I-bFGF and ^125I-FGF9 to CHO cells transfected with FGFR-1 and FGFR-3, respectively, was carried out as described in Methods, section (iv), in the absence or presence of increasing concentrations of P1.

[5] = read-out: Cellular receptor binding (IC50), binding of FGF to FGFR, Methods section (iv)
[6] = read-out: Soluble receptor binding (IC50), binding of FGF to FGFR, Methods section (iii)

| IC50 [1] | IC50 (FGFR-1 [2]) | Molecule | Inhibitory activity in vivo, LLC tumor model (as % of total inhibition) [3] | also measured |
| --- | --- | --- | --- | --- |
| 80 nM | – | C[n+]1ccc(C2=Cc3cc4[nH]c(cc5nc(cc6[nH]c(cc2n3)cc6-c2cc[n+](C)cc2)C=C5c2cc[n+](C)cc2)cc4-c2cc[n+](C)cc2)cc1 [Compound P10, 3,8,13,18-Tetrakis(N-methyl-4-pyridylium)-21H,23H-porphine tetraiodide] | – | IC50 (FGFR-1 [2]; [5]): 1900 nM; IC50 (soluble FGFR-1 (FRAP); [6]): 850 nM |
| – | 100 nM | C[n+]1ccc(-c2c3nc(c(-c4cc[n+](C)cc4)c4ccc([nH]4)c(-c4c(F)c(F)c(F)c(F)c4F)c4nc(c(-c5c(F)c(F)c(F)c(F)c5F)c5ccc2[nH]5)C=C4)C=C3)cc1 [Compound P18, 5,10-Bis(pentafluorophenyl)-15,20-bis(N-methyl-4-pyridylium)-21H,23H-porphine diiodide] | 50% | IC50 (soluble FGFR-1 (FRAP)): 75 nM |
| – | 30 nM | C[n+]1ccc(-c2c3nc(c(-c4c(F)c(F)c(F)c(F)c4F)c4ccc([nH]4)c(-c4cc[n+](C)cc4)c4nc(c(-c5c(F)c(F)c(F)c(F)c5F)c5ccc2[nH]5)C=C4)C=C3)cc1 [Compound P17, 5,15-Bis(pentafluorophenyl)-10,20-bis(N-methyl-4-pyridylium)-21H,23H-porphine diiodide] | 40% | IC50 (soluble FGFR-1 (FRAP)): 20 nM |
| 100 nM | – | C[n+]1ccc(-c2c3nc(c(-c4cc[n+](C)cc4)c4ccc([nH]4)c(-c4c(F)c(F)c(NCCCN)c(F)c4F)c4nc(c(-c5cc[n+](C)cc5)c5ccc2[nH]5)C=C4)C=C3)cc1 [Compound P19] | – | IC50 (FGFR-1 [2]; [5]): 2000 nM |
| 500 nM | > 10000 nM | O=C(O)c1ccc(-c2c3nc(c(-c4ccc(C(=O)O)cc4)c4ccc([nH]4)c(-c4ccc(C(=O)O)cc4)c4nc(c(-c5ccc(C(=O)O)cc5)c5ccc2[nH]5)C=C4)C=C3)cc1 [Compound P11, 5,10,15,20-Tetrakis(4-carboxylatophenyl) 21H,23H-porphine tetraammonium] | – | – |
| 100 nM | 1800 nM | C[N+](C)(C)c1ccc(-c2c3nc(c(-c4ccc([N+](C)(C)C)cc4)c4ccc([nH]4)c(-c4ccc([N+](C)(C)C)cc4)c4nc(c(-c5ccc([N+](C)(C)C)cc5)c5ccc2[nH]5)C=C4)C=C3)cc1 [Compound P5, 5,10,15,20-Tetrakis[4-(trimethylammonio)phenyl]-21H,23H-porphine tetra-p-tosylate] | 75% | IC50 (soluble FGFR-1 (FRAP)): 900 nM |

More lines, now with the values behind:

| Molecule | IC50 [1] | IC50 (FGFR-1 [2]) | Inhibitory activity in vivo, LLC tumor model (as % of total inhibition) [3] | also measured |
| --- | --- | --- | --- | --- |
| C[n+]1ccc(-c2c3nc(c(-c4cc[n+](C)cc4)c4ccc([nH]4)c(-c4cc[n+](C)cc4)c4nc(c(-c5cc[n+](C)cc5)c5ccc2[nH]5)C=C4)C=C3)cc1 [Compound P8, 5,10,15,20-Tetrakis-(N-methyl-4-pyridylium)-21H,23H-porphine tetraiodide] | 95 nM | – | 90% | IC50 (FGFR-1 [2]; Cellular receptor binding (IC50), binding of FGF to FGFR, Methods section (iv)): 1300 nM; IC50 (soluble FGFR-1 (FRAP); Soluble receptor binding (IC50), binding of FGF to FGFR, Methods section (iii)): 950 nM |
| Tetrakis(4-cumyloxyphenoxy)phthalocyanine [Compound P4] | > 10000 nM | – | – | – |
| Cc1ccc(C(=O)Nc2ccc(S(=O)(=O)O)c3cc(S(=O)(=O)O)cc(S(=O)(=O)O)c23)cc1NC(=O)c1cccc(NC(=O)Nc2cccc(C(=O)Nc3cc(C(=O)Nc4ccc(S(=O)(=O)O)c5cc(S(=O)(=O)O)cc(S(=O)(=O)O)c45)ccc3C)c2)c1 [Suramin, reference compound] | – | – | – | Inhibition of bFGF-receptor complex formation (cross-linking), in words (FGFR-1 [4]): demonstrated FGF receptor binding inhibition |
| C[n+]1ccccc1-c1c2nc(c(-c3cccc[n+]3C)c3ccc([nH]3)c(-c3cccc[n+]3C)c3nc(c(-c4cccc[n+]4C)c4ccc1[nH]4)C=C3)C=C2 (single isomer, unassigned) [Compound P7, 5,10,15,20-Tetrakis-(N-methyl-2-pyridylium)-21H,23H-porphine tetraiodide] | – | – | 90% | – |
| C[n+]1cccc(-c2c3nc(c(-c4ccc[n+](C)c4)c4ccc([nH]4)c(-c4ccc[n+](C)c4)c4nc(c(-c5ccc[n+](C)c5)c5ccc2[nH]5)C=C4)C=C3)c1.Cc1ccc(S(=O)(=O)[O-])cc1.Cc1ccc(S(=O)(=O)[O-])cc1.Cc1ccc(S(=O)(=O)[O-])cc1.Cc1ccc(S(=O)(=O)[O-])cc1 [Compound P12, 5,10,15,20-Tetrakis(N-methyl-3-pyridylium)-21H,23H-porphine tetra-p-tosylate] | – | – | 0% | IC50 (FGFR-1 [2]; [5]): > 10000 nM; IC50 (soluble FGFR-1 (FRAP); [6]): 10000 nM |
| COc1ccc(-c2c3nc(c(-c4ccc(OC)cc4)c4ccc([nH]4)c(-c4ccc(OC)cc4)c4nc(c(-c5ccc(OC)cc5)c5ccc2[nH]5)C=C4)C=C3)cc1 [Compound P3, 5,10,15,20-Tetrakis(4-methoxyphenyl)-21H,23H-porphine] | > 10000 nM | – | – | – |
| C[n+]1ccccc1-c1c(F)c(F)c(-c2c3nc(c(-c4c(F)c(F)c(-c5cccc[n+]5C)c(F)c4F)c4ccc([nH]4)c4ccc([nH]4)c(-c4c(F)c(F)c(-c5cccc[n+]5C)c(F)c4F)c4ccc2[nH]4)C=C3)c(F)c1F [Compound P21, 5,10,15-Tris[2,3,5,6-tetrafluorophenyl-4-(N-methyl-2-pyridylium)]-21H,23H-corrole triiodide] | – | – | 200% | Inhibition of lung metastasis in LLC model, in words ([3]; 25 μg/g of body mass IP): highly active in vivo; Concentration inhibiting lung metastasis formation in vivo ([3]; mouse, in vivo): 5 mg/kg body weight; Inhibition of bFGF binding to immobilized FRAP, in words (soluble FGFR-1 (FRAP); FIG. 8B): inhibit bFGF binding in vitro |
| C[n+]1cccc(-c2c3nc(c(-c4ccc[n+](C)c4)c4ccc([nH]4)c(-c4ccc[n+](C)c4)c4nc(c(-c5ccc[n+](C)c5)c5ccc2[nH]5)C=C4)C=C3)c1 [Compound P13, 5,10,15,20-Tetrakis(N-methyl-3-pyridylium)-21H,23H-porphine tetraiodide] | – | > 10000 nM | – | IC50 (soluble FGFR-1 (FRAP)): > 10000 nM |
